# Test results as given in patent US20130059773A1, “COMPOUNDS FOR THE TREATMENT OF INFLAMMATION AND NEUTROPENIA” (priority 2010, published 2013).
# Columns and labels:
# neutrophils [1] = test: Neutrophil apoptosis/survival by phosphatidylserine externalization after annexin-V and 7-AAD labeling; type: cell-based, human; settings: 15 h at 37° C.; anti-Fas mAb 10 ng/ml, gliotoxin 2 mg/ml
# Experimental: Analysis of apoptosis. Neutrophil apoptosis was triggered by incubating neutrophils at 37° C. alone (constitutive apoptosis) or with anti-Fas mAb (10 ng/ml; Beckman-Coulter) or gliotoxin ([…]; Sigma) (Ward et al. 1999, J. Biol. Chem. 274:4309-4318) for the indicated times. Neutrophil apoptosis was evaluated by phosphatidylserine externalization after annexin-V and 7-AAD labeling (Kantari et al. 2007, Blood 110:4086-4095); mitochondrial depolarization after DiOC6 labeling (Moriceau et al. 2009, J. Immuno1.182:7254-7263); caspase-3 and caspase-8 activities measured by spectrophotometry (Biovision) in neutrophil lysates. In DMF-differentiated-PLB985 cells, apoptosis was triggered by gliotoxin or by rTRAIL (10 ng/ml; RD System) (Yin et al. 2005, Int. J. Biochem. Cell Biol. 37:1696-1708) and caspase-8 and caspase-9 activities were determined after gating on CD11b^+ cells using the Caspase-Glow® assay (Promega). Apoptosis-induced chromatin condensation and DNA fragmentation were assessed, respectively, after DNA staining with the blue fluorescent dye Hoechst (5 mg/ml) and propidium-iodide staining (Goepel et al. 2004, J. Leukoc. Biol. 75:836-843). Carboxyp21 ([…], SEQ ID NO: 24) corresponding to the p21 carboxy-terminus sequence (residues 141-160) and containing a RYIRS carboxy-terminal extension to facilitate its cell entry was synthesized and purified (Genecust). A modified peptide in which the charged amino acids responsible for its binding to PCNA have been changed according to dynamic simulation studies ([…], SEQ ID NO: 25) served as control. The effect of PS-341 (LC Laboratories) and MG132 were tested on neutrophil apoptosis and PCNA expression as indicated.
# BM neutrophils = test: Apoptosis of BM-isolated mouse neutrophils by annexin-V labelling; type: cell-based; settings: increasing gliotoxin concentrations
# Experimental: In vivo model of LPS-induced airway inflammation. Peripheral blood neutrophils and BM mature neutrophils from femurs were isolated using Percoll density gradient, as described in Mocsai et al. (2002, Immunity 16:547-558). Intranasal LPS administration in mice and collection of cells from BALF was performed as described in Chignard et al. (2000, Am. J. Physiol. Lung Cell Mol. Physiol. 279:L1083-1090). Mice were treated in accordance with Inserm guidelines in compliance with European animal-welfare regulations. Seven-week-old male C57B1/6 mice, weighing 25-30 g (Charles Rivers), were anesthetized by intra-muscular injection of a mixture of ketamine and xylasine, and then 330 μg/kg of LPS dissolved in 50 μl of saline were deposited intranasally. At different times, animals were killed by an intraperitoneal injection of a lethal dose of sodium pentobarbital (Sanofi) to isolate lung neutrophils. The trachea of each mouse was then cannulated and BAL performed with a syringe and multiple cycles of saline instillation (0.5 ml) and aspiration to obtain a BALF volume of 4 ml. The latter was centrifuged, pelleted cells were collected and differential cell counts made after cytospin centrifugation and staining with Diff-Quik products. BAL neutrophils were isolated by Ficoll density gradient centrifugation. […]
# [2] = report; cited from earlier work
# neutrophils [3] = settings: report; cited from earlier work
SMILES,Increase of annexin-V+ 7-AAD− cells (neutrophils [1]),Apoptosis of BM neutrophils by annexin-V labelling (BM neutrophils),Inflammation resolution in vivo [2],Neutrophil apoptosis (neutrophils [3])
"CN1C(=O)[C@]23CC4=CC=C[C@H](O)[C@H]4N2C(=O)[C@@]1(CO)SS3 [gliotoxin, reference compound]",further enhanced,trigger apoptosis in BM neutrophils in a dose-dependent manner,–,–
CC[C@H](CO)Nc1nc(NCc2ccccc2)c2ncn(C(C)C)c2n1 [roscovitine],–,–,promotes inflammation resolution in vivo,triggers neutrophil apoptosis
